From patent US20170001990A1 (Genentech, Inc., priority 2014, published 2017)

target: Human recombinant carboxy-terminal his-tagged LDHA (amino acids 2-332) (Homo sapiens, UniProt P00338); assay: LDHA enzyme inhibition assay (NADH fluorescence); details: LDHA IC50 (μM), 1 nM LDHA, NADH and pyruvate, stereochemistry of tested sample given

SMILES	IC50 [µM]
O=C1C[C@](c2ccsc2)(c2cccc(Oc3ccc(Br)cc3Cl)n2)NC(=O)C1Sc1ccccc1Cl (stereo partly drawn) [Example 327, (6S)-6-[6-(4-bromo-2-chloro-phenoxy)-2-pyridyl]-3-(2-chlorophenyl) sulfanyl-6-(3-thienyl) piperidine-2,4-dione]	0.035
O=C1CC(c2ccsc2)(c2ccc(N3CCOCC3)c(F)c2)NC(=O)C1Sc1ccccc1Cl (stereo not drawn) [Example 328, 3-(2-chlorophenyl)sulfanyl-6-(3-fluoro-4-morpholino-phenyl)-6-(3-thienyl)piperidine-2,4-dione]	0.054
O=C1CC(c2ccsc2)(c2cccc(Nc3ccc(F)c(F)c3Cl)n2)NC(=O)C1Sc1ccccc1Cl (stereo not drawn) [Example 329, 6-[6-(2-chloro-3,4-difluoro-anilino)-2-pyridyl]-3-(2-chlorophenyl)sulfanyl-6-(3-thienyl)piperidine-2,4-dione]	0.037
O=C1C[C@](c2ccsc2)(c2cccc(Oc3ccc(C(F)(F)F)cc3)n2)NC(=O)C1Sc1ccccc1Cl (stereo partly drawn) [Example 330, (6S)-3-(2-chlorophenyl) sulfanyl-6-(3-thienyl)-6-[6-[4-(trifluoromethyl)phenoxy]-2-pyridyl] piperidine-2,4-dione]	0.041
CC(Nc1cccc(C2(c3ccsc3)CC(=O)C(Sc3ccccc3Cl)C(=O)N2)n1)C1CC1 (stereo not drawn) [Example 331]	0.148
CC(Nc1cccc(C2(c3ccsc3)CC(=O)C(Sc3ccccc3Cl)C(=O)N2)n1)C1CC1 (stereo not drawn) [Example 332]	0.168
O=C1CC(c2ccsc2)(c2cccc(OC3CCCc4c(F)cccc43)n2)NC(=O)C1Sc1ccccc1Cl (stereo not drawn) [Example 333, 5-(2-chlorophenyl)sulfanyl-2-[6-(5-fluorotetralin-1-yl)oxy-2-pyridyl]-4-hydroxy-2-(3-thienyl)-1,3-dihydropyridin-6-one]	0.198
COc1cc(F)ccc1Oc1cccc(C2(c3ccsc3)CC(=O)C(Sc3ccccc3Cl)C(=O)N2)n1 (stereo not drawn) [Example 334, 3-(2-chlorophenyl)sulfanyl-6-[6-(4-fluoro-2-methoxy-phenoxy)-2-pyridyl]-6-(3-thienyl)piperidine-2,4-dione]	0.739

More lines, in order of falling IC50, values ahead:

IC50 [µM]	SMILES
0.368	O=C1CC(c2ccsc2)(c2cccc(Oc3ccccc3)n2)NC(=O)C1Sc1ccccc1Cl [Example 336, (6R)-3-(2-chlorophenyl) sulfanyl-6-(6-phenoxy-2-pyridyl)-6-(3-thienyl) piperidine-2,4-dione]
0.084	O=C1CC(c2ccsc2)(c2cccc(Oc3ccc(F)nc3Cl)n2)NC(=O)C1Sc1ccccc1Cl (stereo not drawn) [Example 324, 6-[6-[(2-chloro-6-fluoro-3-pyridyl)oxy]-2-pyridyl]-3-(2-chlorophenyl) sulfanyl-6-(3-thienyl) piperidine-2,4-dione]
0.009	O=C1CC(c2cccc(Oc3ccc(F)cc3)n2)(c2ccccc2O)NC(=O)C1Sc1ccccc1Cl (stereo not drawn) [Example 338, 5-(2-chlorophenyl)sulfanyl-2-[6-(4-fluorophenoxy)-2-pyridyl]-4-hydroxy-2-(2-hydroxyphenyl)-1,3-dihydropyridin-6-one]
0.002	Cc1cc(Nc2cccc([C@@]3(c4ccsc4)CC(=O)C(Sc4ccccc4Cl)C(=O)N3)n2)cnc1F (stereo partly drawn) [Example 335, (6S)-3-(2-chlorophenyl) sulfanyl-6-[6-[(6-fluoro-5-methyl-3-pyridyl)amino]-2-pyridyl]-6-(3-thienyl) piperidine-2,4-dione]
